Source: patent US6511939B1, “Coronatine as an abscission agent” (priority 2001, dated 2003)

Assays:
Type in all cases: in vivo
[1] = test system: Valencia orange; assay: Fruit pull-force reduction after spraying trees, Valencia orange; details: for % reduction in fruit pull force, day 5: 0.125% Kinetic, day 5, mean
Experimental: (§1) Data are the means of 10 replicate branches, with 10 fruit/branch. Bars above and below the means indicate standard error of the mean.
(§2) Solutions of COR were prepared that contained 200 mg/L or 300 mg/L of COR dissolved in water and 0.125% Kinetic®. The solution was sprayed until “run-off,” typically about 5 L/tree. […] Under field conditions, canopies should not be sprayed if rainfall is anticipated within 24 hours. For comparison purposes, 200 mg/L to 400 mg/L Ethrel® solutions and a 0.125% Kinetic® solution were applied to trees. After several days, usually 3 to 10, differences in fruit pull-force were measured between COR and other treatments and is an indication of fruit loosening ability. […] Differences in fruit drop were also measured by counting or weighing dropped fruit.

[2] = test system: Valencia orange; assay: Fruit drop after spraying trees, Valencia orange; details: for % fruit drop, day 5: day 5, mean
Experimental: as §1, §2

[3] = test system: Hamlin orange; assay: Fruit pull-force reduction after spraying trees, Hamlin orange; details: for % reduction in fruit pull force, day 5: day 5, mean
Experimental: Data are the means of 6 replicate branches, with 10 fruit/branch. Bars above and below the means indicate standard error of the mean.
as §2

[4] = COR compositions 200 or 300 mg/L

| SMILES | % reduction in fruit pull force, day 5 ([1]; 200 mg/L spray to run-off) [%] | % reduction in fruit pull force, day 5 ([1]; 300 mg/L spray to run-off) [%] | reduction of fruit pull-force [1, 4] | % fruit drop, day 5 ([2]; 200 mg/L spray to run-off) [%] | % fruit drop, day 5 ([2]; 300 mg/L spray to run-off) [%] | percentage of fruit drop as compared to Ethrel and the control [2, 4] | % reduction in fruit pull force, day 5 ([3]; 200 mg/L spray to run-off) [%] | % reduction in fruit pull force, day 5 ([3]; 300 mg/L spray to run-off) [%] | reduction of fruit pull-force [3, 4] |
| --- | --- | --- | --- | --- | --- | --- | --- | --- | --- |
| CC[C@H]1C=C(C(=O)N[C@@]2(C(=O)O)C[C@@H]2CC)[C@H]2CCC(=O)[C@H]2C1 [COR, Coronatine] | 96.1 | 96.3 | approximately 95% | 50 | 63.3 | substantially increased | 55 | 55.5 | approximately 95% |
| O=P(O)(O)CCCl [Ethrel ®, 2-chloroethyl phosphonic acid] | 71.7 | – | – | 13.3 | – | – | 64 | – | – |
